{"source": "patent US11661398B2", "about": "“Cellular transport system for transferring a sulfonic acid construct carrying a cargo into the cytoplasm of a cell” (Scientist of Fortune, S.A., priority 2017, dated 2023)", "key": {"PnGGT ΔN24": {"biological_target": "PnGGT ΔN24 (Pseudomonas nitroreducens, UniProt E0D5C2)", "test": "Kinetic measurements with purified PnGGT ΔN24", "type": "biochemical", "experimental": "(§1) For the experiments relating to the sulfonate based synthetic transport system, purification of PnGGT ΔN24 and PnGGT ΔN24 D405N containing an N-terminal 6×His-tag was performed according to previous reports (Van Dyke et al., 1992) using Ni-NTA Superflow (Qiagen, Hilden, Germany). For kinetic studies, PnGGT variants were purified with the aid of the 6×His-tag located at the N-terminal end of the large subunit following the same procedure. To exchange the buffer, purified proteins were dialyzed against 50 mM Tris/HCl (pH 7.0).\nTo determine the kinetic parameters of PnGGT ΔN24 and PnGGT ΔN24 D405N the purified enzymes were preincubated in 50 mM Tris-HCl (pH 9.0). To start the reaction, varying concentrations of the substrates L-glutamic acid γ-(3-carboxy-4-nitroanilide) or sulfobutanoyl-p-nitroanilide were added to the mixtures. The results were evaluated using GraphPad Prism (GraphPad Software, La Jolla, Calif., USA)."}, "PnGGT* P505T [1]": {"test_system": "PnGGT* P505T", "test": "Sulfobutanoyl-p-nitroanilide hydrolysis kinetics", "type": "biochemical, Pseudomonas nitroreducens", "conditions": "50 mM Tris/HCl (pH 7.0)", "experimental": "FIG. 31. Sulfobutanoyl-p-nitroanilide hydrolysis kinetics of PnGGT* P505T. The kinetic parameters of PnGGT* P505T were determined in 50 mM Tris/HCl (pH 7.0) with the substrate sulfobutanoyl-p-nitroanilide added to the following concentrations: 50, 100, 250, 500, 750, 1000, 1500 and 2000 μM. […] Fitting of the kinetic data was performed with SigmaPlot v.12.2. Dots represent the average of three independent measurements with standard deviations shown as error bars.\nas §1"}, "EcGGT ΔN24 D433N": {"biological_target": "T1, EcGGT ΔN24 D433N (Escherichia coli, UniProt P18956, D433N)", "T1 construct": "made in house; host or cells: E. coli (pACT3 plasmid); assayed in whole cell lysate", "test": "Colorimetric GGT assay in whole cell lysates", "type": "biochemical, E. coli", "conditions": "whole cell lysate, 4 mM substrate, 50 mM Tris-HCl (pH 9.0), 410 nm", "text": "To test for the desired activity a colorimetric enzyme assay was chosen and the substrate sulfobutanoyl-p-nitroanilide was synthesized for this purpose. Hydrolysis of this colorless substrate by a GGT variant into sulfobutanoic acid and the yellow dye 4-nitroaniline can be quantified photometrically at 410 nm. For that, cytoplasmic GGT variants containing an N-terminal 6×His-tag were first expressed from E. coli (EcGGT ΔN24) and Pseudomonas nitroreducens (PnGGT ΔN24), as well as EcGGT ΔN24 D433N and the corresponding mutant variant PnGGT ΔN24 D405N. Position D405 of PnGGT was identified to fulfill the same function as position D433 of EcGGT by sequence alignment and homology modeling between EcGGT and PnGGT. Then the ability of whole cell lysates containing the respective enzymes was tested to hydrolyze L-glutamic acid γ-(3-carboxy-4-nitroanilide) or sulfobutanoyl-p-nitroanilide."}, "PnGGT ΔN24 D405N": {"biological_target": "T2, PnGGT ΔN24 D405N (Pseudomonas nitroreducens, UniProt E0D5C2, D405N)", "T2 sequence (E0D5C2 with tags, fused parts or gaps D405N)": "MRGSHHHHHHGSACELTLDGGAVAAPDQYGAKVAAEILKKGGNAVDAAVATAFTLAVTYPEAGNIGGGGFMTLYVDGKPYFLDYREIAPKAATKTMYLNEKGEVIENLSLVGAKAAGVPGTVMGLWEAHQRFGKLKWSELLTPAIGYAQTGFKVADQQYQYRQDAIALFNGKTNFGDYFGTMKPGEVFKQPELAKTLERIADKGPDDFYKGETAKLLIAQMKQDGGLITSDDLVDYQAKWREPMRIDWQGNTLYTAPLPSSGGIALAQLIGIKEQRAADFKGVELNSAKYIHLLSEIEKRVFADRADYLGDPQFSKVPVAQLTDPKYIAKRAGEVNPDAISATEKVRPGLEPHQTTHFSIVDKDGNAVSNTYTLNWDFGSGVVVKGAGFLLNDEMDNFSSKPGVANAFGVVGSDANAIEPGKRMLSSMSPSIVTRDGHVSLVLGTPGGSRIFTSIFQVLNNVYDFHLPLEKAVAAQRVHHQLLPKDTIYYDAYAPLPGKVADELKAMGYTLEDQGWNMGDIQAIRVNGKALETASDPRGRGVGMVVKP", "test": "Colorimetric GGT assay in whole cell lysates / cell free extracts", "type": "biochemical", "conditions": "whole cell lysate, 4 mM substrate, 50 mM Tris-HCl (pH 9.0), 410 nm", "text": "FIG. 22: Identification of GGT* activity and refactoring of the ssuABC operon. […] The release of 4-nitroaniline was quantified by measuring the absorption at 410 nm. (b) Plasmid map of the three-dimensional RBS-library for refactoring the ssuABC operon using 144 RBS variants per gene. RBS library sequences are underlined. Arrows point towards the final RBS sequences observed in plasmid pSsuABC. […] (e) Growth of strain TK088[pSsuABC]transformed with the empty vector pACT3 (black circles) or plasmid pPnGGT* (white circles) in liquid MS minimal medium supplemented with 0.5% glucose, 1 mM MgSO4, 0.4 mM L-leucine, 0.5 mM IPTG, 100 ng ml^−1 aTc and 0.5 mM sulfobutanoyl-L-histidine. Bars and dots from panels (a), (d) and (e) represent the average of three independent measurements with standard deviations shown as error bars.\nTo test for the desired activity a colorimetric enzyme assay was chosen and the substrate sulfobutanoyl-p-nitroanilide was synthesized for this purpose. Hydrolysis of this colorless substrate by a GGT variant into sulfobutanoic acid and the yellow dye 4-nitroaniline can be quantified photometrically at 410 nm. For that, cytoplasmic GGT variants containing an N-terminal 6×His-tag were first expressed from E. coli (EcGGT ΔN24) and Pseudomonas nitroreducens (PnGGT ΔN24), as well as EcGGT ΔN24 D433N and the corresponding mutant variant PnGGT ΔN24 D405N. […]"}, "PnGGT* D385Y": {"test_system": "PnGGT* D385Y", "test": "GGT* activity assay with cell free extracts of PnGGT* mutant variants", "type": "biochemical, Pseudomonas nitroreducens", "conditions": "2 mM substrate", "experimental": "(§2) FIG. 29. Expression analysis of selected PnGGT* mutant variants. Strain TK018 was transformed with the empty vector pACT3, the parent plasmid pPnGGT* or selected mutant variants thereof and grown in LB medium to early exponential phase. Synthesis of the PnGGT* variants was induced for 4 hours by adding 0.5 mM IPTG to the culture. (a) GGT* activity assays with cell free extracts and 2 mM of the substrate sulfobutanoyl-p-nitroanilide. […] Bars represent the average of three independent measurements with standard deviations shown as error bars. (b) SDS-PAGE of cell free extracts to confirm loading of similar protein amounts. (c) Western Blot of cell free extracts with an antibody directed against the large subunit of PnGGT* (38.5 kDa). Mutant variants Y167V Q168P and Y167H Q168G were synthesized slightly less efficiently than PnGGT*. All other mutant variants were synthesized with similar efficiency as PnGGT*."}, "PnGGT* P505T [2]": {"test_system": "PnGGT* P505T", "test": "GGT* activity assay with cell free extracts of PnGGT* mutant variants", "type": "biochemical, Pseudomonas nitroreducens", "conditions": "2 mM substrate, sodium salt", "experimental": "as §2"}}, "note": "“Also recorded” adds a separate entry of the source. Structures can show the parent of a compound that is named as a salt."}
{"smiles": "O=C(CCCS(=O)(=O)O)Nc1ccc([N+](=O)[O-])cc1", "note": "[sodium salt]", "values": [{"measurement": "hydrolysis of substrate by purified enzyme", "setting": "PnGGT ΔN24", "value": "no detectable activity"}, {"measurement": "improvement of catalytic efficiency (kcat/KM) over PnGGT*", "setting": "PnGGT* P505T [1]", "value": 39, "unit": "%"}, {"measurement": "improvement of kcat over PnGGT*", "setting": "PnGGT* P505T [1]", "value": 8, "unit": "%"}, {"measurement": "lower K (KM) over PnGGT*", "setting": "PnGGT* P505T [1]; 50-2000 μM substrate", "value": 27, "unit": "%"}, {"measurement": "hydrolysis of substrate", "setting": "EcGGT ΔN24 D433N", "value": "acquired the ability to hydrolyze"}, {"measurement": "hydrolysis of substrate", "setting": "PnGGT ΔN24 D405N", "value": "significantly higher activity than EcGGT ΔN24 D433N"}, {"measurement": "activity towards substrate", "setting": "PnGGT* D385Y", "value": "low activity"}, {"measurement": "activity towards substrate compared to PnGGT*", "setting": "PnGGT* P505T [2]", "value": "elevated activity; also recorded: slightly elevated in vitro activity"}]}
